Consider two molecules from ChEMBL document CHEMBL4118136, “The photodynamic activity of 131-[2'-(2-pyridyl)ethylamine] chlorin e6 photosensitizer in human esophageal cancer” (Bioorg Med Chem Lett, 2018).

For data set [1], the system named is ECa-109 cell line. The data set is described as follows: Antitumor activity against human ECA109 cells xenografted in Balb/C nude mouse assessed as inhibition of tumor growth at 2 mg/kg, iv followed by irradiation at 100 J/cm2 and measured after 13 days relative to untreated control. The data set is classed as functional. The conditions noted are these: ECa-109, light or radiation study, 312 h, read-out: TGI.

Data set [2] can be described thus: Drug accumulation in endoplasmic reticulum of human ECA109 cells at 0.9 uM incubated for 4 hrs by ER-green[DiOC6(3)] dye based confocal microscopy. The conditions noted are these: eca-109, 4 h. The data set is classed as ADME, subcellular.
Data set [3] in a line: Drug accumulation in lysosome of human ECA109 cells at 0.9 uM incubated for 4 hrs by Lyso tracker blue green dye based confocal microscopy. The conditions noted are these: eca-109, 4 h. The data set is classed as ADME, subcellular.
In data set [4] the test system is ECa-109 cell line. The data set is described as follows: Induction of apoptosis in human ECA109 cells assessed as viable cells level measured 2 hrs after 2 J/cm2 irradiation by Annexin V and propidium iodide staining based flow cytometry (reference value: 99.99%). The data set is classed as functional.
Data set [5] is described as follows: Induction of singlet oxygen generation assessed as singlet oxygen quantum yield by measuring DPBF chemical oxidation in DMF solution incubated for 10 to 30 secs under irradiation by UV-Vis spectrophotometry. The data set is classed as functional.
Data set [6] deals with ECa-109 cell line. Kind of data set: Cytotoxicity in human ECA109 cells assessed as reduction in cell viability incubated for 24 hrs followed by irradiation with 2 J/cm2 red light by MTT assay. The data set is classed as functional, cell-based. The conditions noted are these: ECa-109, light or radiation study. For orientation: Formazan colour is commonly taken as a measure of viable cells.

Data set [7] in a line: Induction of singlet oxygen generation assessed as DPBF chemical oxidation in DMF solution incubated for 10 to 30 secs under irradiation by UV-Vis spectrophotometry. The data set is classed as functional. The conditions noted are these: TDE = time-dependent effect.
The subject of data set [8] is ECa-109 cell line. Kind of data set: Induction of apoptosis in human ECA109 cells assessed as necrosis cells level measured 2 hrs after 2 J/cm2 irradiation by Annexin V and propidium iodide staining based flow cytometry. The data set is classed as functional.
Data set [9] in a line: Induction of singlet oxygen generation assessed as DPBF chemical oxidation in DMF solution incubated for 10 to 30 secs under irradiation by UV-Vis spectrophotometry relative to mTHPC. The data set is classed as functional.
For data set [10], the system named is ECa-109 cell line. Kind of data set: Cytotoxicity in human ECA109 cells assessed as reduction in cell viability incubated for 24 hrs followed by irradiation with 1 J/cm2 red light by MTT assay. The data set is classed as functional, cell-based. The conditions noted are these: ECa-109, light or radiation study.
For data set [11], the system named is ECa-109 cell line. The data set is described as follows: Cytotoxicity in human ECA109 cells assessed as reduction in cell viability incubated for 24 hrs followed by irradiation with 0.5 J/cm2 red light by MTT assay. The data set is classed as functional, cell-based. The conditions noted are these: ECa-109, light or radiation study.
Data set [12] has as its system ECa-109 cell line. The data set is described as follows: Antitumor activity against human ECA109 cells xenografted in Balb/C nude mouse assessed as increase in nuclear fission level at 2 mg/kg, iv followed by irradiation at 100 J/cm2 and measured after 13 days by hematoxylin-eosin staining based light microscopy relative to untreated control. The data set is classed as functional, organism-based.

Data set [13] has as its system ECa-109 cell line. Kind of data set: Antitumor activity against human ECA109 cells xenografted in Balb/C nude mouse assessed as reduction in tumor cell per unit area at 2 mg/kg, iv followed by irradiation at 100 J/cm2 and measured after 13 days by hematoxylin-eosin staining based light microscopy relative to untreated control. The data set is classed as functional, organism-based. (A xenograft is tissue or cells of one species grown in another, often human tumour cells in immunodeficient mice.)

Data set [14] has as its system ECa-109 cell line. Kind of data set: Induction of apoptosis in human ECA109 cells assessed as necrosis cells level measured 4 hrs after 2 J/cm2 irradiation by Annexin V and propidium iodide staining based flow cytometry. The data set is classed as functional.
In data set [15] the test system is ECa-109 cell line. The data set is described as follows: Cytotoxicity in human ECA109 cells assessed as reduction in cell viability incubated for 24 hrs followed by irradiation with 1.5 J/cm2 red light by MTT assay. The data set is classed as functional, cell-based. The conditions noted are these: ECa-109, light or radiation study.
Data set [16] has as its system ECa-109 cell line. Kind of data set: Induction of apoptosis in human ECA109 cells xenografted in Balb/C nude mouse at 2 mg/kg, iv followed by irradiation at 100 J/cm2 and measured after 13 days by TUNEL staining based light microscopy relative to untreated control. The data set is classed as functional.
Data set [17] relates to ECa-109 cell line. The data set is described as follows: Induction of apoptosis in human ECA109 cells assessed as reduction in pro-caspase-3 activity measured 2 hrs after 2 J/cm2 irradiation. The data set is classed as functional, cell-based.
For data set [18], the system named is ECa-109 cell line. The data set is described as follows: Induction of apoptosis in human ECA109 cells assessed as early apoptosis cells level measured 2 hrs after 2 J/cm2 irradiation by Annexin V and propidium iodide staining based flow cytometry. The data set is classed as functional. A general note: A flow cytometer gives signals particle by particle.
In data set [19] the test system is ECa-109 cell line. Kind of data set: Induction of apoptosis in human ECA109 cells assessed as viable cells level measured 4 hrs after 2 J/cm2 irradiation by Annexin V and propidium iodide staining based flow cytometry (reference value: 99.99%). The data set is classed as functional.
In data set [20] the test system is ECa-109 cell line. The data set is described as follows: Induction of apoptosis in human ECA109 cells assessed as necrotic cells level in absence of irradiation by Annexin V and propidium iodide staining based flow cytometry. The data set is classed as cell-based.
A short description of data set [21]: Induction of apoptosis in human ECA109 cells assessed as viable cells level in absence of irradiation by Annexin V and propidium iodide staining based flow cytometry (reference value: 99.99%). The data set is classed as cell-based, ECa-109. The conditions noted are these: read-out: Activity.
The subject of data set [22] is ECa-109 cell line. The data set is described as follows: Induction of apoptosis in human ECA109 cells assessed as viable cells level measured 8 hrs after 2 J/cm2 irradiation by Annexin V and propidium iodide staining based flow cytometry (reference value: 99.99%). The data set is classed as functional.
Data set [23] deals with ECa-109 cell line. The data set is described as follows: Antitumor activity against human ECA109 cells xenografted in Balb/C nude mouse assessed as increase in megakaryocytes level at 2 mg/kg, iv followed by irradiation at 100 J/cm2 and measured after 13 days by hematoxylin-eosin staining based light microscopy relative to untreated control. The data set is classed as functional, organism-based.

Data set [24] is described as follows: Dark toxicity in human ECA109 cells assessed as reduction in cell viability at 0.1 to 0.9 uM incubated for 24 hrs under dark conditions by MTT assay. The conditions noted are these: eca-109, 24 h. The data set is classed as cell-based.
Data set [25] relates to ECa-109 cell line. The data set is described as follows: Cytotoxicity in human ECA109 cells assessed as reduction in cell viability incubated for 24 hrs followed by irradiation with 2.5 J/cm2 red light by MTT assay. The conditions noted are these: ECa-109, light or radiation study. The data set is classed as functional, cell-based.
In data set [26] the test system is ECa-109 cell line. The data set is described as follows: Induction of apoptosis in human ECA109 cells assessed as necrosis cells level measured 8 hrs after 2 J/cm2 irradiation by Annexin V and propidium iodide staining based flow cytometry. The data set is classed as functional.
The test system of data set [27] is ECa-109 cell line. The data set is described as follows: Induction of apoptosis in human ECA109 cells assessed as late apoptosis cells level measured 8 hrs after 2 J/cm2 irradiation by Annexin V and propidium iodide staining based flow cytometry (reference value: 0.01%). The data set is classed as functional.
Data set [28] can be described thus: Drug uptake in human ECA109 cells at 0.5 uM incubated for 2 to 24 hrs by fluorescence spectrometry. The data set is classed as ADME, cell-based. The conditions noted are these: eca-109, 0.5 µM, TDE = time-dependent effect.
The subject of data set [29] is ECa-109 cell line. The data set is described as follows: Induction of apoptosis in human ECA109 cells assessed as late apoptotic cells level in absence of irradiation by Annexin V and propidium iodide staining based flow cytometry (reference value: 0.01%). The data set is classed as cell-based.
The subject of data set [30] is ECa-109 cell line. The data set is described as follows: Antitumor activity against human ECA109 cells xenografted in Balb/C nude mouse assessed as increase in cell differentiation at 2 mg/kg, iv followed by irradiation at 100 J/cm2 and measured after 13 days by hematoxylin-eosin staining based light microscopy relative to untreated control. The data set is classed as functional, organism-based.

The subject of data set [31] is ECa-109 cell line. The data set is described as follows: Induction of apoptosis in human ECA109 cells assessed as early apoptosis cells level measured 4 hrs after 2 J/cm2 irradiation by Annexin V and propidium iodide staining based flow cytometry. The data set is classed as functional.
For data set [32], the system named is ECa-109 cell line. The data set is described as follows: Induction of apoptosis in human ECA109 cells assessed as early apoptosis cells level measured 8 hrs after 2 J/cm2 irradiation by Annexin V and propidium iodide staining based flow cytometry. The data set is classed as functional.
The subject of data set [33] is ECa-109 cell line. The data set is described as follows: Cytotoxicity in human ECA109 cells assessed as reduction in cell viability incubated for 24 hrs followed by irradiation with 0.5 to 2.5 J/cm2 red light by MTT assay. The data set is classed as functional, cell-based.
Data set [34] has as its system ECa-109 cell line. The data set is described as follows: Induction of apoptosis in human ECA109 cells assessed as late apoptosis cells level measured 2 hrs after 2 J/cm2 irradiation by Annexin V and propidium iodide staining based flow cytometry (reference value: 0.01%). The data set is classed as functional.
Data set [35] has as its system ECa-109 cell line. The data set is described as follows: Induction of apoptosis in human ECA109 cells assessed as early apoptotic cells level in absence of irradiation by Annexin V and propidium iodide staining based flow cytometry. The data set is classed as cell-based.
Data set [36] is described as follows: Drug accumulation in mitochondria of human ECA109 cells at 0.9 uM incubated for 4 hrs by mitotracker green dye based confocal microscopy. The conditions noted are these: eca-109, 4 h. The data set is classed as ADME.
Data set [37] relates to ECa-109 cell line. Kind of data set: Induction of apoptosis in human ECA109 cells assessed as late apoptosis cells level measured 4 hrs after 2 J/cm2 irradiation by Annexin V and propidium iodide staining based flow cytometry (reference value: 0.01%). The data set is classed as functional.

What is called IC50 is the concentration at which inhibition is half-maximal.

Active and inactive are the calls of the source. No cut-off for these calls is given here.

`Oc1cccc(-c2c3nc(c(-c4cccc(O)c4)c4ccc([nH]4)c(-c4cccc(O)c4)c4nc(c(-c5cccc(O)c5)c5ccc2[nH]5)CC4)C=C3)c1` [TEMOPORFIN]: in data set [1], the inhibition in vivo at 2 mg/kg stood at 79%.
As to `C=Cc1c(C)c2cc3nc(c(CC(=O)OC)c4[nH]c(cc5nc(cc1[nH]2)C(C)=C5CC)c(C)c4C(=O)NCCc1ccccn1)[C@@H](CCC(=O)OC)[C@@H]3C`, the Drug uptake entry in [2] is “Active”; in [3] it was “Active”; in [28], “Tde”; in data set [36], “Active”. Further, the Activity in data set [4] is 15.19%; in data set [7] it was “Tde”; in data set [8], 9.33%; in data set [14] it was 7.87%; in [16], 40%; in [18] it was 7.15%. The Activity is given as 13.1% in [19]; 2.3% in data set [20]; 4.92% in data set [22]; “Non-Toxic” in [24]; 3.29% in data set [26]; 85.78% in [27]. For the same molecule, the Activity is 4.7% in data set [29]; 8.1% in [31]; 6.01% in data set [32]; “Dose-dependent effect” in data set [33]; 68.34% in [34]; 3.16% in data set [35]. In addition, in data set [37], the Activity is recorded as 70.93%. The inhibition in vivo at 2 mg/kg in data set [1] stood at 92%. Also, in data set [5], the Activity index was found to be 0.98. Also, the IC50 was found to be 380 nM in data set [6]; 640 nM in data set [10]; 1330 nM in data set [11]; 430 nM in [15]; 300 nM in data set [25]. In addition, the fold change (FC) in data set [9] was determined as 0.0193. Moreover, the outcome in data set [12], in [13], in data set [17], in [23] and in data set [30] was Active. Further, the viability in data set [21] was found to be 89.8%.
